# Results: patent US20230310486A1, “CONJUGATED OLIGONUCLEOTIDE COMPOUNDS, METHODS OF MAKING AND USES THEREOF” (E-Therapeutics PLC, priority 2021, published 2023)
# In the oligonucleotide strings, read from the 5' end, every base follows the letter of its sugar. An asterisk marks phosphorothioate; unmarked linkages are phosphodiester. Other units and linkages are bracketed, terminal groups are in braces. A string of capitals states the bases alone. {ET-GalNAc-T2CO} = code of the source, not defined here; {NH2C12} = code of the source, not defined here; {NHC6} = code of the source, not defined here; m = 2'-O-methyl; f = 2'-fluoro
# System: hsHAO1 mRNA
# Assay: Dose-response of hsHAO1 targeting GalNAc-siRNAs in primary human hepatocytes, gymnotic free uptake, bDNA assay
# Assay type: cell-based
# Details: PHHs
# Method: HepG2 cells were supplied by American Tissue Culture Collection (ATCC) (HB-8065, Lot #: 63176294) and cultured in ATCC-formulated Eagle's Minimum Essential Medium supplemented to contain 10% fetal calf serum (FCS). Primary human hepatocytes (PHHs) were sourced from Primacyt (Schwerin, Germany) (Lot #: CyHuf19009HEc). Cells are derived from a […] by explant technique. All cells used in this study were cultured at 37° C. in an atmosphere with 5% CO2 in a humidified incubator.
# Dose response analysis in PHHs was done by direct incubation of cells in a gymnotic, free uptake setting starting with 1.5 μM highest final siRNA concentration, followed by 500 nM and from there on going serially down in twofold dilution steps.
# Control wells were transfected into HepG2 cells or directly incubated with primary human hepatocytes at the highest test siRNA concentrations studied on the corresponding plate. All control siRNAs included in the different project phases next to mock treatment of cells are summarized and listed in Table 2. For each siRNA and control, at least four wells were transfected/directly incubated in parallel, and individual data points were collected from each well.
# After 24 h of incubation with siRNA post-transfection, media was removed and HepG2 cells were lysed in Lysis Mixture (1 volume of lysis buffer plus 2 volumes of nuclease-free water) and then incubated at 53° C. for at least 45 minutes. In the case of PHHs, plating media was removed 5 h post treatment of cells followed by addition of 50 μl of complete maintenance medium per well. Media was exchanged in that way every 24 h up to a total incubation period of 72 h. At either 4 h or 72 h time point, cell culture supernatant was removed followed by addition of 200 μl of Lysis Mixture supplemented with 1:1000 v/v of Proteinase K.
# The branched DNA (bDNA) assay was performed according to manufacturer's instructions. Luminescence was read using a 1420 Luminescence Counter (WALLAC VICTOR Light, Perkin Elmer, Rodgau-JMgesheim, Germany) following 30 minutes incubation in the presence of substrate in the dark. For each well, the on-target mRNA levels were normalized to the hsGAPDH mRNA levels. The activity of any siRNA was expressed as percent on-target mRNA concentration (normalized to hsGAPDH mRNA) in treated cells, relative to the mean on-target mRNA concentration (normalized to hsGAPDH mRNA) across control wells.
# Following the identification of a suitable batch (CyHuf19009) of primary human hepatocytes (PHHs), a gymnotic, free uptake analysis was performed of hsHAO1 targeting GalNAc-siRNAs, listed in Table 1. The highest tested final siRNA concentration was 1.5 μM, followed by 500 nM, going down in eight two-fold serial dilution steps to the lowest final siRNA concentration of 1.95 nM. The experiments ended at 4 h and 72 h post direct incubation of PHH cells.
substance,measurement,setting,value
"ETX004: hsHAO1 GalNAc-siRNA, 5′-GalNAc T2b alternating; sense X91412, antisense X91398; linker + ligand as FIG. 21 (sense {ET-GalNAc-T2CO}-{NH2C12}-fGmAfCmUfUmUfCmAfUmCfCmUfGmGfAmAfAmUfA*mU*fA; antisense mU*fA*mUfAmUfUmUfCmCfAmGfGmAfUmGfAmAfAmGfUmC*fC*mA)",Max. Inhib.,4 h incubation,−2.3%
same,IC20,72 h incubation,2.8 nM
same,Max. Inhib.,72 h incubation,35.5%
"ETX002: hsHAO1 GalNAc-siRNA, 5′-GalNAc T2b inverted abasic; sense X91409, antisense X38483; linker + ligand as FIG. 21 (sense GACUUUCAUCCUGGAAAUAUA; antisense UAUAUUUCCAGGAUGAAAGUCCA; 5'-GalNAc, inverted abasic, 2'-F/OMe, PS; misc_feature 1..21 modified siRNA; misc_feature 1..23 modified siRNA)",Max. Inhib.,4 h incubation,7.2%
same,IC20,72 h incubation,23.9 nM
same,Max. Inhib.,72 h incubation,44.3%
"ECX008: hsHAO1 GalNAc-siRNA, 3′-GalNAc T2a alternating, same sequences as ETX008, lower purity (sense fG*mA*fCmUfUmUfCmAfUmCfCmUfGmGfAmAfAmUfAmUfA-{NHC6}-{ET-GalNAc-T2CO}; antisense mU*fA*mUfAmUfUmUfCmCfAmGfGmAfUmGfAmAfAmGfUmC*fC*mA; further chemistry not given here)",Max. Inhib.,4 h incubation,2.0%
same,IC20,72 h incubation,4.9 nM
same,IC50,72 h incubation,260 nM
same,Max. Inhib.,72 h incubation,58.1%
